Patent US11432547B2, “Inhibitors of GRB2-associated binding protein 1 (GAB1) and methods of treating cancer using the same” (Arizona Board of Regents on Behalf of the University of …, priority 2014, dated 2022)
“And” between values parts separate entries of the source, which are not always exact repeats. Identical values can stand only once. Like-named read-outs stand apart in the source and are kept apart here.

Assays:
[1] = test system: GAB1 Y627 phosphorylation; experiment: Inhibition of GAB1 Y627 phosphorylation in T47D cells; format: cell-based; settings: Homo sapiens, Y627, 20 μM compound 4 hr, HGF stimulated, read-out: % pGAB1 inhibition
Method: For all biological assays, hit compounds were added at 20 μM concentration directly into the culture media of the cells for 4 hr following a 16 hr incubation of T47D cells without FBS. Cells were stimulated with HGF for 20 min at 50 ng/ml. Following this treatment, cells were lysed and equal amounts of total cell lysate were loaded on a pSer^312-IRS-1/Total IRS-1 Meso Scale Discovery plate as described by the manufacturer. The plate was read using a Sector™Imager 2400A instrument (Meso Scale Discovery protein profiling system, Gaithersburg, Md.). For the measurement of GAB1 phosphorylation, T47D cells were treated as for the phosphorylation of IRS1 evaluation. […] Each experiment was performed at least three times.

[2] = test system: T47D breast cancer cell line; experiment: Cellular proliferation assay (MTT), T47D; format: cell-based, human; settings: for IC50: Homo sapiens, T47D, 96 h, 4 days growth, MTT, IA: Inactive
Method: (§1) Two human breast cancer Cell lines and one normal breast cell line were used for this study: T47D ductal missing highlighted section in original pg. 26Type Culture Collection, Rockville, Md.). T47D and MDA-MB-231 cells were maintained in bulk culture in Dulbecco's modified Eagle medium (DMEM) supplemented with 10% heat-inactivated fetal bovine serum (FBS), 4.5 g/L glucose, 100 U/mL penicillin and […] streptomycin in a 5% CO2 atmosphere. MCF-10A cells were maintained in MEGM with other conditions same as the cancer cell lines. […] Cells were confirmed to be mycoplasma free by testing them with an ELISA kit (Roche-Boehringer Mannheim, Indianapolis, Ind.). The hit compounds were freshly prepared in DMSO at a stock concentration of 10 mM. For the evaluation of cellular proliferation, a standard 96-well micro-cytotoxicity assay was performed as described in reference. Briefly, the assay was set up by plating cells at 5,000-10,000 cells per well (depending on cell doubling time) for a growth period of 4 days. The identified hits were added directly to the media, dissolved in DMSO at various concentrations ranging from 1 to 200 μM. The endpoint was spectrophotometric determination of the reduction of 3-(4,5-dimethylthiazol-2-yl)-2,5-diphenyltetrazolium bromide. All assays were performed in triplicates.

[3] = test system: MDA-MB-231 breast cancer cell line; experiment: Cellular proliferation assay (MTT), MDA-MB-231; format: cell-based, human; settings: for IC50: Homo sapiens, MDA-MB-231, 96 h, 4 days growth, MTT, IA: Inactive
Method: as §1

[4] = molecular target: T1, GAB1 PH domain (Homo sapiens, UniProt Q13480); experiment: SPR binding assay, GAB1 PH domain; settings: for Exp. ΔGbind: GAB1, derived from experimental KD or Ki, RT ln(KD)
T1 sequence (Q13480 5-116 limits assumed): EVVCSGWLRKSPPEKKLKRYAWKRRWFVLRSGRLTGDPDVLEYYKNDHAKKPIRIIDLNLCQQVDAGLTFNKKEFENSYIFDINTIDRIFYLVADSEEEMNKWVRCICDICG

[5] = molecular target: T2, IRS1 PH domain (Homo sapiens, UniProt P35568); experiment: SPR binding assay, IRS1 PH domain (selectivity); settings: derived from experimental KD, RT ln(KD)
T2 sequence (P35568 12-115 limits assumed): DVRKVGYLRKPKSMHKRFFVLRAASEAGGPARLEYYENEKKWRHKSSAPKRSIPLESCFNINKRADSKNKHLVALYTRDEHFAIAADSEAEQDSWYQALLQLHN
Method: The DNA sequences of human GAB1 and IRS1 PH domain (IRS1 is for selectivity evaluation) were cloned into pGEX-4T1 inducible bacterial expression plasmid (GeneStorm, Invitrogen, Carlsbad, Calif.) transformed into BL21 (DE3) E. Coli. Expression and purification of the recombinant proteins were performed. Binding assays were performed using a Biacore 2000 instrument with the Biacore Control Software v3.2 and BIAevaluation v4.1 analysis software (Biacore, Piscataway, N.J.). Briefly, the PH domain GST-fusion proteins were immobilized on a CMS Sensorchip (Biacore BR-1000-12) using Biacore's Amine Coupling Kit (Biacore BR-1000-50) to a level of 10,000 Response units (RUs). Small molecule analytes at concentrations ranging from one tenth to ten times the predicted KD were injected at a high flow rate (30 μL/min). Dimethylsulfoxide (DMSO) concentrations in all samples and running buffer were 1% (v/v) or less. […] The inventors did triplicate SPR assays for each concentration.

[6] = test system: MCF-10A breast epithelial cell line; experiment: Cellular proliferation assay, MCF-10A; format: cell-based, human; settings: data not shown
Method: Two human breast cancer Cell lines and one normal breast cell line were used for this study: T47D ductal missing highlighted section in original pg. 26Type Culture Collection, Rockville, Md.). T47D and MDA-MB-231 cells were maintained in bulk culture in Dulbecco's modified Eagle medium (DMEM) supplemented with 10% heat-inactivated fetal bovine serum (FBS), 4.5 g/L glucose, 100 U/mL penicillin and […] streptomycin in a 5% CO2 atmosphere. MCF-10A cells were maintained in MEGM with other conditions same as the cancer cell lines. Cells were passaged using 0.25% trypsin and 0.02% EDTA. Cells were confirmed to be mycoplasma free by testing them with an ELISA kit (Roche-Boehringer Mannheim, Indianapolis, Ind.). The hit compounds were freshly prepared in DMSO at a stock concentration of 10 mM. For the evaluation of cellular proliferation, a standard 96-well micro-cytotoxicity assay was performed as described in reference. Briefly, the assay was set up by plating cells at 5,000-10,000 cells per well (depending on cell doubling time) for a growth period of 4 days. The identified hits were added directly to the media, dissolved in DMSO at various concentrations ranging from 1 to 200 μM. The endpoint was spectrophotometric determination of the reduction of 3-(4,5-dimethylthiazol-2-yl)-2,5-diphenyltetrazolium bromide. All assays were performed in triplicates.

[7] = test system: MDA-MB-468 cell line; experiment: Cellular proliferation assay, MDA-MB-468; format: cell-based; settings: Homo sapiens, printed in MDA-MB-231 column with ** footnote, read-out: IC50 (μM), MDA-MB-468 cell line used
[8] = molecular target: GAB2 PH domain (Homo sapiens, UniProt Q9UQC2); experiment: Follow-up experiments, GAB2 PH domain; format: binding
Sequence of GAB2 PH domain (Q9UQC2 6-117 limits assumed): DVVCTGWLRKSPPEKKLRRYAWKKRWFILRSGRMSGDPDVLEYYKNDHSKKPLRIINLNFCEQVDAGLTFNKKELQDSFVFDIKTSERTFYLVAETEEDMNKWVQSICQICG

[9] = competitive binding vs PtdIns(3,4,5)P3 liposomes, values with asterisk, read-out: Kn or Ki (μM) GAB1, *Ki measurement

Structure (SMILES) | IC50 [2] | IC50 [3] | inhibition at 20 µM [1] | also measured
CCCCCCCCCCCCCCCCCCOC[C@H](COP(=O)(O)OC1C(O)[C@@H](O)C(O)C[C@H]1O)OC (stereo partly drawn) [DPIEL, reference compound] |  |  | 72% | 
Cn1cnc(S(=O)(=O)Nc2ccccc2SCCS(=O)(=O)c2ccc(Cl)cc2)c1 [GAB-002] | 138 ± 6.9 µM | 143 ± 11.6 µM | 32% | 
CS(=O)(=NS(=O)(=O)c1ccc(-c2ccccn2)s1)c1ccc(Cl)cc1 (stereo not drawn) [GAB-005] | > 200 µM | > 200 µM | 6% | 
Cc1cc2ncc(-c3cnc(SCCS(=O)(=O)c4ccc(Cl)cc4)nc3)c(C)n2n1 [GAB-006] | 101 ± 1.8 µM |  | 16% | 
Cc1noc(C)c1NC(=O)NCc1csc(-c2cccs2)n1 [GAB-009] | 97.6 ± 6.1 µM | 163 ± 6 µM | 38% | 
Cn1c(Cc2ccsc2)nnc1SCC(=O)Nc1cc(Cl)cc(Cl)c1 [GAB-011] | > 200 µM | > 200 µM | 24% | 
O=C(O)c1ccccc1C(=O)Nc1ccccc1SCCS(=O)(=O)c1ccc(Cl)cc1 [GAB-012] | 119 ± 3.6 µM | > 200 µM | 43% | toxicity to MCF-10A at 100 μM [6]: toxic; killing of T47D at 50 μM [2]: did not effectively kill; killing of MDA-MB-231 at 50 μM [3]: did not effectively kill
COc1cc(NS(=O)(=O)c2ccc(NS(=O)(=O)c3c(C)noc3C)cc2)nc(OC)n1 [GAB-013] | > 200 µM | > 200 µM | 27% | toxicity to MCF-10A at 100 μM [6]: toxic; killing of T47D at 50 μM [2]: did not effectively kill; killing of MDA-MB-231 at 50 μM [3]: did not effectively kill
Cc1nnc(NS(=O)(=O)c2ccc(NS(=O)(=O)c3ccc4ccccc4c3)cc2)s1 [GAB-014] | 178 ± 3.9 µM |  | 42% | IC50 [7]: 69.9 ± 0.1 µM
CCCCCCCCCCCCc1ccc(S(=O)(=O)Nc2nnc(CC(=O)O)s2)cc1 [GAB-015] | 125 ± 5.4 µM |  |  | inhibition at 20 µM ([1]; T47D, 4 h): 77%; Ki [4, 9]: 13.1 ± 1.5 µM
CCCCCCCCCCCCc1ccc(S(=O)(=O)Nc2nnc(CC(=O)OCC)s2)cc1 [GAB-016] |  |  |  | inhibition at 20 µM ([1]; T47D, 4 h): > 80%; targeting of GAB2 PH domain [8]: targets GAB2 PH domain; Exp. ΔGbind [5]: -9.38 kcal/mol; Exp. ΔGbind [4]: -8.31 kcal/mol
CCCCCCCCCCCCc1ccc(S(=O)(=O)Nc2nnc(C(=O)OCC)s2)cc1 [GAB-017] |  |  |  | inhibition at 20 µM ([1]; T47D, 4 h): > 80%; Exp. ΔGbind [4]: -8.47 kcal/mol
CCCCCCCCCCCCc1ccc(S(=O)(=O)Nc2nnc(S(N)(=O)=O)s2)cc1 [GAB-018] | 185 ± 2.5 µM |  |  | inhibition at 20 µM ([1]; T47D, 4 h): 71%; killing of T47D at 50 μM [2]: did not effectively kill; killing of MDA-MB-231 at 50 μM [3]: did not effectively kill; Ki [4, 9]: 36.6 ± 5 µM
CCCCCCCCCCCCc1ccc(S(=O)(=O)Nc2nncs2)cc1 [GAB-020] |  |  | 87% | 

The remaining molecules from weak to strong by IC50 [2], led by results:

IC50 [2] | IC50 [3] | Structure (SMILES) | inhibition at 20 µM [1] | also measured
43.2 ± 3.2 µM | > 200 µM | O=S(=O)(NCc1csc(-c2cccs2)n1)c1ccc(N2CCOCC2)nc1 [GAB-008] | 8% | 
39.4 ± 6.2 µM |  | CCc1ccc(C(=O)OC)cc1CSc1nnc(-c2ccc(C(F)(F)F)cc2)n1Cc1ccoc1 [GAB-019] | 91% | 
23.8 ± 4.2 µM | 66 ± 4.4 µM | Cc1onc(-c2ccccc2)c1-c1nc(CSc2nc3ccccc3[nH]2)no1 [GAB-010] | 92% | Exp. ΔGbind [5]: -9.51 kcal/mol
23.7 ± 2.7 µM | 40.3 ± 1.3 µM | O=S(=O)(NCc1csc2ccc(Cl)cc12)c1cc(S(=O)(=O)c2ccccc2)cs1 [GAB-001] | 55% | Exp. ΔGbind [4]: -6.91 kcal/mol; Ki [4, 9]: 9.4 µM and 9.38 µM
20.1 ± 4.3 µM | 4.6 ± 0.7 µM | CS(=O)(=O)CCSc1ncccc1C(=O)Sc1ccc(Cl)cc1Cl [GAB-007] | 53% | Exp. ΔGbind [5]: -7.93 kcal/mol; Exp. ΔGbind [4]: -6.01 kcal/mol; Ki ([4]; SPR direct binding, values without asterisk, NB: No Binding, read-out: Kn or Ki (μM) GAB1): 42.3 ± 8.9 µM
19.4 ± 2.9 µM | 66.6 ± 4.6 µM | O=c1[nH]nc(SCc2csc(-c3ccccc3)n2)n1Cc1ccco1 [GAB-004] | 81% | Exp. ΔGbind [4]: -7.78 kcal/mol
13.9 ± 0.6 µM | 85.2 ± 7.2 µM | Cc1nc(-c2cnc(S(=O)(=O)N3CCN(C4c5ccccc5-c5ccccc54)CC3)s2)cs1 [GAB-003] | 14% | 
